The values below are quoted from earlier work in patent US12440482B2, “1,4-dihydropyridine compositions, methods of making and use” (American Regent, Inc., priority 2019, dated 2025).

As for `COC(=O)C1=C(C)NC(C)=C(C(=O)OCCN(C)Cc2ccccc2)C1c1cccc([N+](=O)[O-])c1` (stereo not shown) [nicardipine], the solubility in water result is recorded as “only slightly soluble”.
